According to ChEMBL document CHEMBL1137942, “Design, synthesis, and biological activity of novel, potent, and selective (benzoylaminomethyl)thiophene sulfonamide inhibitors of c-Jun-N-terminal kinase” (J Med Chem, 2004):

How the values were obtained:
[1] = molecular target: Mitogen-activated protein kinase 10 (Homo sapiens) (UniProt P53779); assay: Percentage activity of human JNK3 in the presence of 10 uM of compound and 10 uM of ATP in comparison with control
[2] = molecular target: Mitogen-activated protein kinase 1 (Homo sapiens) (UniProt P28482); assay: Percentage activity of human MAPK1 in the presence of 10 uM of compound and 10 uM of ATP in comparison with control
[3] = molecular target: Protein kinase C delta type (Homo sapiens) (UniProt Q05655); assay: Percentage activity of human PKC delta in the presence of 10 uM of compound and 10 uM of ATP in comparison with control
[4] = molecular target: MAP kinase-activated protein kinase 2 (Homo sapiens) (UniProt P49137); assay: Percentage activity of human MAPKAP-K2 in the presence of 10uM of compound and 10uM of ATP in comparison with control
Chain of MAP kinase-activated protein kinase 2 (Homo sapiens) (P49137 whole entry, looked up): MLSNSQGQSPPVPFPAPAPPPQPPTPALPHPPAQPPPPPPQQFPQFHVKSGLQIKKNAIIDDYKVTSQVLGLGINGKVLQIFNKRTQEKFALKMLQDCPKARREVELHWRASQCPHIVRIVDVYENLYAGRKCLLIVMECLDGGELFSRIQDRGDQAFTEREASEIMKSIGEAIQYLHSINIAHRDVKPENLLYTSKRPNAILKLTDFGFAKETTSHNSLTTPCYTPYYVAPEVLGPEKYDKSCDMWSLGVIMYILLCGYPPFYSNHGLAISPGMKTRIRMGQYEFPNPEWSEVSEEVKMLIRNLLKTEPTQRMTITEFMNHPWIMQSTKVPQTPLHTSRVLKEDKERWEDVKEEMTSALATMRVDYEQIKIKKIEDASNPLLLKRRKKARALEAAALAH

[5] = molecular target: Dual specificity mitogen-activated protein kinase kinase 4 (Mus musculus) (UniProt P47809); assay: Percentage activity of mouse MKK4 in the presence of 10 uM of compound and 10 uM of ATP in comparison with control
[6] = molecular target: Tyrosine-protein kinase CSK (Homo sapiens) (UniProt P41240); assay: Percentage activity of human CSK in the presence of 10uM of compound and 10uM of ATP in comparison with control
[7] = molecular target: Insulin receptor (Homo sapiens) (UniProt P06213); assay: Percentage activity of human IR in the presence of 10 uM of compound and 10 uM of ATP in comparison with control
[8] = molecular target: Ribosomal protein S6 kinase (P70S6K) (Homo sapiens) (UniProt Q9UBS0+P23443); assay: Percentage activity of human p70S6K in the presence of 10 uM of compound and 10 uM of ATP in comparison with control; format: protein-complex assay
Rattus norvegicus = species on record: Rattus norvegicus; assay: Percentage activity of rat AMPK in the presence of 10 uM of compound and 10 uM of ATP in comparison with control
[9] = molecular target: Tyrosine-protein kinase Lyn (Homo sapiens) (UniProt P07948); assay: Percentage activity of human Lyn in the presence of 10 uM of compound and 10 uM of ATP in comparison with control
Chain of Tyrosine-protein kinase Lyn (Homo sapiens) (P07948 2-512 limits assumed): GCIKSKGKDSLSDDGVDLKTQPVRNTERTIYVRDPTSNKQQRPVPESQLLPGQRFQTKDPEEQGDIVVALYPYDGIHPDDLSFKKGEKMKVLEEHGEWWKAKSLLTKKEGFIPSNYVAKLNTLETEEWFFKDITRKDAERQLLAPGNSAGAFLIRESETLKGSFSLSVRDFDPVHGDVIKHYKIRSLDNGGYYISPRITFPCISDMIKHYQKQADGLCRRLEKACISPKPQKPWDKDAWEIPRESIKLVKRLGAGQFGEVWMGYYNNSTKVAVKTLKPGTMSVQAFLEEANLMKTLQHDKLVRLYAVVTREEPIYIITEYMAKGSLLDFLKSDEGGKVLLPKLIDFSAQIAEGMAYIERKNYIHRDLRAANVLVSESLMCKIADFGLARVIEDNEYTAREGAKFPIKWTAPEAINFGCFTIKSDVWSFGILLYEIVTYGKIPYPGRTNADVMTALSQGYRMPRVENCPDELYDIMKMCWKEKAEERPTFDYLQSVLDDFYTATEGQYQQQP

[10] = molecular target: Serine/threonine-protein kinase PAK 2 (Homo sapiens) (UniProt Q13177); assay: Percentage activity of human PAK2 in the presence of 10 uM of compound and 10 uM of ATP in comparison with control
Chain of Serine/threonine-protein kinase PAK 2 (Homo sapiens) (Q13177 whole entry): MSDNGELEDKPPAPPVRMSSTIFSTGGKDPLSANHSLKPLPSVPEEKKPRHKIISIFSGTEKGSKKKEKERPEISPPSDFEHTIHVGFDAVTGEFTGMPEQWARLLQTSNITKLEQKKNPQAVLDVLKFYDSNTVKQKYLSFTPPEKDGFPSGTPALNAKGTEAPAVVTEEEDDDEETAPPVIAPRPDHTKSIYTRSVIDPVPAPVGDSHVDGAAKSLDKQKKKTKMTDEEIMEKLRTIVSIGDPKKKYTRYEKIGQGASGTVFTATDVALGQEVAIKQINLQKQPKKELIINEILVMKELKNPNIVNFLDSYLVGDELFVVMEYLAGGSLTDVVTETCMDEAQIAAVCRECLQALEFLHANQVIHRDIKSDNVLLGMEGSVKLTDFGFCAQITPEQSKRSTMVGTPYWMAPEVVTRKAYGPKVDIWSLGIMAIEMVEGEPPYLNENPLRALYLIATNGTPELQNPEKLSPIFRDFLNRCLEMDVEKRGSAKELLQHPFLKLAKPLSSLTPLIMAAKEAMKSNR

[11] = molecular target: Tyrosine-protein kinase Lck (Homo sapiens) (UniProt P06239); assay: Percentage activity of human Lck in the presence of 10 uM of compound and 10 uM of ATP in comparison with control
Chain of Tyrosine-protein kinase Lck (Homo sapiens) (P06239 2-509 limits assumed): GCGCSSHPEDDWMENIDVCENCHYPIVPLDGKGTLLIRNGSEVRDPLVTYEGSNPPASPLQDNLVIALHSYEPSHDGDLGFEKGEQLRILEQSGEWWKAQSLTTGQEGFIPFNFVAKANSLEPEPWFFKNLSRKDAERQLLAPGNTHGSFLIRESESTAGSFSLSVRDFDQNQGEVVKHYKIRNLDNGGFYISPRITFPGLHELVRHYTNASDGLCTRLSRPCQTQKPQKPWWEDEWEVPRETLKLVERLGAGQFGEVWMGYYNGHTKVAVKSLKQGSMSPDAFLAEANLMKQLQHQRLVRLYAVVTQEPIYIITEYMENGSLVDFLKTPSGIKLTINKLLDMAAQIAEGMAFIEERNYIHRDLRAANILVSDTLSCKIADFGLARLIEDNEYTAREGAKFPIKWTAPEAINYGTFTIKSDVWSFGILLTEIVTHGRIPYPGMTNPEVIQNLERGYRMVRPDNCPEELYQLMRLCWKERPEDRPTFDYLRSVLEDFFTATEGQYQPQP

[12] = molecular target: cAMP-dependent protein kinase (PKA) (Homo sapiens) (UniProt P22694+P17612+P22612); assay: Percentage activity of human PKA in the presence of 10 uM of compound and 10 uM of ATP in comparison with control; format: protein assay
[13] = molecular target: Protein kinase C alpha type (Homo sapiens) (UniProt P17252); assay: Percentage activity of human PKC alpha -His in the presence of 10 uM of compound and 10 uM of ATP in comparison with control
[14] = molecular target: Tyrosine-protein kinase Blk (Mus musculus) (UniProt P16277); assay: Percentage activity of mouse Blk in the presence of 10 uM of compound and 10 uM of ATP in comparison with control
Chain of Tyrosine-protein kinase Blk (Mus musculus) (P16277 whole entry): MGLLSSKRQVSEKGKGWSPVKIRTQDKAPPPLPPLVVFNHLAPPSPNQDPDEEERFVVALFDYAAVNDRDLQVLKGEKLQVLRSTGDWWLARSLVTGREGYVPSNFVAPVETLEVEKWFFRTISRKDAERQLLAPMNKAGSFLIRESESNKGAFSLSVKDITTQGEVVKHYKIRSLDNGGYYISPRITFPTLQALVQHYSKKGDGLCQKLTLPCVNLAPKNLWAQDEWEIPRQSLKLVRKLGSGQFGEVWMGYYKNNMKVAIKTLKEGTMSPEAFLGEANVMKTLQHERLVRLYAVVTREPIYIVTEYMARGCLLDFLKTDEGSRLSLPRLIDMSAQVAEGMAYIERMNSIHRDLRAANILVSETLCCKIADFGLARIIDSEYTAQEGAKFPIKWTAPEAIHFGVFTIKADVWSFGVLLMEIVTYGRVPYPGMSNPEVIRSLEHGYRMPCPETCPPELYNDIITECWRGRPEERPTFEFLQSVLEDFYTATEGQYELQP

[15] = molecular target: Protein kinase C theta type (Homo sapiens) (UniProt Q04759); assay: Percentage activity of human PKC theta in the presence of 10 uM of compound and 10 uM of ATP in comparison with control
[16] = molecular target: Tyrosine-protein kinase receptor UFO (Homo sapiens) (UniProt P30530); assay: Percentage activity of human Axl in the presence of 10 uM of compound and 10 uM of ATP in comparison with control
[17] = molecular target: Tyrosine-protein kinase ABL1 (Mus musculus) (UniProt P00520); assay: Percentage activity of mouse Abl in the presence of 10 uM of compound and 10 uM of ATP in comparison with control
[18] = molecular target: Aurora kinase A (Homo sapiens) (UniProt O14965); assay: Percentage activity of human Aurora-A in the presence of 10 uM of compound and 10 uM of ATP in comparison with control
[19] = molecular target: RAC-beta serine/threonine-protein kinase (Homo sapiens) (UniProt P31751); assay: Percentage activity of human PKB beta in the presence of 10uM of compound and 10uM of ATP in comparison with control
Chain of RAC-beta serine/threonine-protein kinase (Homo sapiens) (P31751 whole entry): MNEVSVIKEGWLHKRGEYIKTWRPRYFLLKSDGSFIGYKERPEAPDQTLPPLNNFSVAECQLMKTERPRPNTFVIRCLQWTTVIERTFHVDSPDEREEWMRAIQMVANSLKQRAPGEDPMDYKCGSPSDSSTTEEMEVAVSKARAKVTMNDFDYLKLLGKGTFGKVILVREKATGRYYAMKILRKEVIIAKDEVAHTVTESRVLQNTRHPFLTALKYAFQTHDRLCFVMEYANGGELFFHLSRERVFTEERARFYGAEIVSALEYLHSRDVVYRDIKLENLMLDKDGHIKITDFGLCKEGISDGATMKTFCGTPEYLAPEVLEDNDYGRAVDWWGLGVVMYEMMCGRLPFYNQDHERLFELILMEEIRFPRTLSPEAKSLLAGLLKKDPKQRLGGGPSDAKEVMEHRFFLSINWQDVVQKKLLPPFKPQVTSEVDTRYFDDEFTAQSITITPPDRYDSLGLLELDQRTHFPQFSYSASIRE

Homo sapiens = species on record: Homo sapiens; assay: Percentage activity of human Rsk2 in the presence of 10 uM of compound and 10 uM of ATP in comparison with control
[20] = molecular target: Tyrosine-protein kinase ABL2 (Mus musculus) (UniProt Q4JIM5); assay: Percentage activity of mouse Arg in the presence of 10 uM of compound and 10 uM of ATP in comparison with control
[21] = molecular target: Calcium/calmodulin-dependent protein kinase type IV (Homo sapiens) (UniProt Q16566); assay: Percentage activity of human CaMKiV in the presence of 10 uM of compound and 10 uM of ATP in comparison with control
[22] = molecular target: RAC-alpha serine/threonine-protein kinase (Homo sapiens) (UniProt P31749); assay: Percentage activity of human PKB alpha in the presence of 10 uM of compound and 10 uM of ATP in comparison with control
[23] = molecular target: BDNF/NT-3 growth factors receptor TrkB (Homo sapiens) (UniProt Q16620); assay: Percentage activity of human TrkB in the presence of 10 uM of compound and 10 uM of ATP in comparison with control
[24] = molecular target: Dual specificity mitogen-activated protein kinase kinase 7 (Homo sapiens) (UniProt O14733); assay: Percentage activity of human MKK7 beta in the presence of 10 uM of compound and 10 uM of ATP in comparison with control
[25] = molecular target: Protein kinase C iota type (Homo sapiens) (UniProt P41743); assay: Percentage activity of human PKC iota in the presence of 10 uM of compound and 10 uM of ATP in comparison with control
Chain of Protein kinase C iota type (Homo sapiens) (P41743 whole entry): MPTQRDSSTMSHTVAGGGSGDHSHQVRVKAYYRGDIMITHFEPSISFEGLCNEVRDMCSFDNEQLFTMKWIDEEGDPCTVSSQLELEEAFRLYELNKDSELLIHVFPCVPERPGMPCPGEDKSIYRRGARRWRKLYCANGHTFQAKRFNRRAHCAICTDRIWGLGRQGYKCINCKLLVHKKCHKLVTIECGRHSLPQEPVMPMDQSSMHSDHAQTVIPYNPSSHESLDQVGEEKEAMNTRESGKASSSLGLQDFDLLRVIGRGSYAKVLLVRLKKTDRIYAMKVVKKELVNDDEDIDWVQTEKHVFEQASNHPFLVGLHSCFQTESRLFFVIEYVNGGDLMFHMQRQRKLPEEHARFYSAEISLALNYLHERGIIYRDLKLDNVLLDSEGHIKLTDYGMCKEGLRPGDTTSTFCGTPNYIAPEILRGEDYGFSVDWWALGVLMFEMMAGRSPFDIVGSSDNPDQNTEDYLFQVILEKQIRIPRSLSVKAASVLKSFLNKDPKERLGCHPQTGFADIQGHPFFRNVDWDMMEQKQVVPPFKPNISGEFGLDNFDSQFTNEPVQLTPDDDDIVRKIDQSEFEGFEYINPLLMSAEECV

[26] = molecular target: Receptor-type tyrosine-protein kinase FLT3 (Homo sapiens) (UniProt P36888); assay: Percentage activity of human Flt3 in the presence of 10 uM of compound and 10 uM of ATP in comparison with control
[27] = molecular target: Serine/threonine-protein kinase Sgk1 (Homo sapiens) (UniProt O00141); assay: Percentage activity of human SGK in the presence of 10 uM of compound and 10 uM of ATP in comparison with control
[28] = molecular target: Serine/threonine-protein kinase D1 (Homo sapiens) (UniProt Q15139); assay: Percentage activity of human PKC mu in the presence of 10 uM of compound and 10 uM of ATP in comparison with control
Chain of Serine/threonine-protein kinase D1 (Homo sapiens) (Q15139 whole entry): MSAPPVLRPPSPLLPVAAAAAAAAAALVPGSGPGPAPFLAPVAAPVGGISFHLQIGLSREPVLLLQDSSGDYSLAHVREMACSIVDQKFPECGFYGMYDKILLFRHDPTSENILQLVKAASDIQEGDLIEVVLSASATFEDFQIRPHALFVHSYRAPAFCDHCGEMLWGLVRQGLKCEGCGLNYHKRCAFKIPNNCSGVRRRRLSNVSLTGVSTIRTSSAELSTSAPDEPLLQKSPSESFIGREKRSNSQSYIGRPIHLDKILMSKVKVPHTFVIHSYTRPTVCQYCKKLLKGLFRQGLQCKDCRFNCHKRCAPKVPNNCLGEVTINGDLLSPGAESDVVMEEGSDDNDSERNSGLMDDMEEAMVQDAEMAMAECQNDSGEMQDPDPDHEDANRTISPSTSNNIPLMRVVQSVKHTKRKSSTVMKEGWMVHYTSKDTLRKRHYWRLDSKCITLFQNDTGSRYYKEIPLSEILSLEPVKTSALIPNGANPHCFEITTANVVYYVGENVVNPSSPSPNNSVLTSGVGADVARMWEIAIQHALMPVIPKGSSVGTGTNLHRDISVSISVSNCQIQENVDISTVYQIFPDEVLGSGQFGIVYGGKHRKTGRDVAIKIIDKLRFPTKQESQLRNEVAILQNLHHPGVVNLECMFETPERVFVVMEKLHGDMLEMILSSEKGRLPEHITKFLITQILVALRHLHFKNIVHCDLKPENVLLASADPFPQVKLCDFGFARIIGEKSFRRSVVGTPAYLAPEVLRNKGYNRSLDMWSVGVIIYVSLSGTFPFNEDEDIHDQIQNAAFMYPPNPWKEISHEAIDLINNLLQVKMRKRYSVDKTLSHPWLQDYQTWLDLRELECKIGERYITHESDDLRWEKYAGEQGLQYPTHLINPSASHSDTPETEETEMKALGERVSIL

[29] = molecular target: CDK3/cyclin E (Homo sapiens) (UniProt P24864+O96020+Q00526); assay: Percentage activity of human CDK3 (with cyclin E) in the presence of 10 uM of compound and 10 uM of ATP in comparison with control; format: protein-complex assay

Chain of Mitogen-activated protein kinase 10 (Homo sapiens) (P53779 whole entry): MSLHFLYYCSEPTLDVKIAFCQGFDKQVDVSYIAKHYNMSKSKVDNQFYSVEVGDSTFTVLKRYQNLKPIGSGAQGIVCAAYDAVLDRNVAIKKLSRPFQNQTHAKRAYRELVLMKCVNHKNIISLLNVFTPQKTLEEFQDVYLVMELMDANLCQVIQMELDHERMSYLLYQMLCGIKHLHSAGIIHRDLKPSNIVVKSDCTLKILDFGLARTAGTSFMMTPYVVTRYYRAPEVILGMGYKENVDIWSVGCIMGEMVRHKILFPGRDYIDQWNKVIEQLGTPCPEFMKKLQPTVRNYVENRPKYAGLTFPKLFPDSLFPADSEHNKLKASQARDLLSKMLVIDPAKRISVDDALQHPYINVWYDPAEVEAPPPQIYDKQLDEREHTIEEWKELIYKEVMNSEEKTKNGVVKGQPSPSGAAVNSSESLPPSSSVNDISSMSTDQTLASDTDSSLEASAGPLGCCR

Activity [1]: 6% | Activity [2]: 97% | Activity [3]: 95% | Activity [4]: 74% | Activity [5]: 112% | Activity [6]: 130% | Activity [7]: 103% | Activity [8]: 77% | Activity (Rattus norvegicus): 90% | Activity [9]: 89% | Activity [10]: 88% | Activity [11]: 85% | Activity [12]: 78% | Activity [13]: 101% | Activity [14]: 78% | Activity [15]: 113% | Activity [16]: 134% | Activity [17]: 80% | Activity [18]: 79% | Activity [19]: 118% | Activity (Homo sapiens): 77% | Activity [20]: 91% | Activity [21]: 93% | Activity [22]: 51% | Activity [23]: 83% | Activity [24]: 121% | Activity [25]: 99% | Activity [26]: 78% | Activity [27]: 67% | Activity [28]: 93% | Activity [29]: 97%
Compound: O=C(NCc1ccc(S(=O)(=O)N2CCC(n3nnc4ccccc43)CC2)s1)c1ccc(Cl)cc1
